In ChEMBL document CHEMBL1201862, “PubChem BioAssay data set” (2004):
Each block holds one compound with its values, some of them ahead of it. Calls of active or inactive are those of the source. For most assays here, no stated cut-off is given here; in the data, actives have a measured EC50 and inactives only a lower limit.

Key:
[1] = target: Luciferin 4-monooxygenase (Photinus pyralis, UniProt P08659); test: firefly luciferase enzyme inhibitors, dose response, biochemical, luminescence (AID 1891)
[2] = Luminescence Cell-Based Dose Confirmation HTS to Identify Inhibitors of Platelet Dense Granule Release. [Related pubchem assays: 1663 (Primary HTS), 1678 (Summary of Project)]; assay type: functional
[3] = tested on: H9c2; test: cells; assay type: functional, cell-based; settings: Rattus norvegicus, H9c2, Myocardium;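 further: confirmatory concentration-response retest of ultra-high-throughput screening hits for modulation of myocardial damage; cell death induced by hydrogen peroxide oxidative stress; compound pretreatment for 60 min then peroxide exposure for 2 h; potency is for protecting the cells against peroxide damage rather than for killing them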
[4] = target: T1, Protein skinhead-1 (Caenorhabditis elegans, UniProt P34707); assay type: functional
T1 sequence (P34707 whole entry): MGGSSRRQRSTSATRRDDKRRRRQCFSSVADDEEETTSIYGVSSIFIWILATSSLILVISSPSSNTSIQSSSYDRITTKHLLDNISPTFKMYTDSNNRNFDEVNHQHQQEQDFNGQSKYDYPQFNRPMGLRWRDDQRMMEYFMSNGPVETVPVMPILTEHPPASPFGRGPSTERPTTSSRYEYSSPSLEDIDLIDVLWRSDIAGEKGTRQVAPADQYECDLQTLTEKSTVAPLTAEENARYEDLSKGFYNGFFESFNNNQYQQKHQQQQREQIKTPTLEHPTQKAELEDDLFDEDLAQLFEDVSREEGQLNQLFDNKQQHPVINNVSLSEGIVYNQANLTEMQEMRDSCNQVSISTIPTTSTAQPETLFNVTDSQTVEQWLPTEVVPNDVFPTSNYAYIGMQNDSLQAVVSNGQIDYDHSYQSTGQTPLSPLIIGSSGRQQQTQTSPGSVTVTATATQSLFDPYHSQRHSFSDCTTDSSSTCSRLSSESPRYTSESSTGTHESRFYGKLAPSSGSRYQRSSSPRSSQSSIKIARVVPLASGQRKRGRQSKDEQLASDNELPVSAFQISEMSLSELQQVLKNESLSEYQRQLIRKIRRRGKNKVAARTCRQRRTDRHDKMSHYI

[5] = target: FAD-linked sulfhydryl oxidase ALR (Homo sapiens, UniProt P55789); test: inhibitors of human ALR sulfhydryl oxidase, dose response, biochemical, H2O2 detection, luminescence, cherry-pick (AID 493248)
[6] = target: T2, Corticotropin-releasing factor receptor 2/Corticotropin-releasing factor-binding protein (Homo sapiens, UniProt P24387+Q13324); test: Dose Response confirmation of uHTS hits for small molecule antagonists of the CRF-binding protein and CRF-R2 receptor complex.; assay type: functional; settings: read-out: IC50_Mean
T2 sequence (Q13324 whole entry): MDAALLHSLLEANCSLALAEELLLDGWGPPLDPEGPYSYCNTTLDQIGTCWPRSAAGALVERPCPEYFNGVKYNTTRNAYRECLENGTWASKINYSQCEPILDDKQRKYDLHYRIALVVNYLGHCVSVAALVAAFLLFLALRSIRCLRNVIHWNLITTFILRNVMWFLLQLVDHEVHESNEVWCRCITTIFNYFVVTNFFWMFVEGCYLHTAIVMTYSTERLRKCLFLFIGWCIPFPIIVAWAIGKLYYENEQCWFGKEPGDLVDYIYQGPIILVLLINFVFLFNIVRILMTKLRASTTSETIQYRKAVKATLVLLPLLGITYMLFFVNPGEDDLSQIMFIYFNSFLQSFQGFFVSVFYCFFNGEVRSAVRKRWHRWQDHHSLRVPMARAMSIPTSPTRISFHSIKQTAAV
T2 sequence (P24387 whole entry): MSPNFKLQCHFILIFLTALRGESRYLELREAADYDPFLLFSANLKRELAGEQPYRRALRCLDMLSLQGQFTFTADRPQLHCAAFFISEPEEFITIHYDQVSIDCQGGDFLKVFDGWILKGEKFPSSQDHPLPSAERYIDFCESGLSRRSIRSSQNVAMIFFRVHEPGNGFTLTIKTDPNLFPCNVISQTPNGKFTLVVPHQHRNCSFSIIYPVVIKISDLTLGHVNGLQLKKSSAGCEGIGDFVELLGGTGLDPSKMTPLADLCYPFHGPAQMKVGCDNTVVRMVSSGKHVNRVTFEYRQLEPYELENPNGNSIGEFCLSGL

[7] = target: T2, Corticotropin-releasing factor receptor 2/Corticotropin-releasing factor-binding protein; test: activators of CRF receptor 2 with binding protein – uHTS hits, confirmation (AID 602473); assay type: functional; settings: read-out: EC50_Mean
[8] = tested on: BJ; test: cytotoxicity toward BJ-TERT fibroblasts, dose response, cell-based, RAS-independent, luminescence (AID 1933); assay type: functional; settings: Homo sapiens
[9] = tested on: BJ; test: cells; assay type: functional, cell-based; settings: Homo sapiens
[10] = tested on: BJ; test: cytotoxicity toward BJ-TERT-LT-ST fibroblasts, dose response, cell-based, RAS-independent, luminescence (AID 1935); assay type: functional; settings: Homo sapiens;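 further: BJ fibroblasts immortalized with TERT plus LT and ST oncogenes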
[11] = cytotoxicity toward DRD oncogenic fibroblasts, dose response, cell-based, non-viral oncogenic, luminescence (AID 1934); assay type: functional; settings: Homo sapiens
[12] = target: T3, Ubiquitin-conjugating enzyme E2 N (Homo sapiens, UniProt P61088); assay type: functional;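 further: Dose-response confirmation in a TR-FRET assay detecting UBC13-driven polyubiquitin chain formation, inhibition measured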
T3 sequence (P61088 whole entry): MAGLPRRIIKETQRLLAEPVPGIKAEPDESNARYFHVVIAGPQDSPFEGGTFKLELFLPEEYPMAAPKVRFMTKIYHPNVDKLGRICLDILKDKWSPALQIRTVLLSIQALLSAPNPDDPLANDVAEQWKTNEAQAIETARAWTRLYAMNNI

Luciferin 4-monooxygenase, sequence (P08659 whole entry): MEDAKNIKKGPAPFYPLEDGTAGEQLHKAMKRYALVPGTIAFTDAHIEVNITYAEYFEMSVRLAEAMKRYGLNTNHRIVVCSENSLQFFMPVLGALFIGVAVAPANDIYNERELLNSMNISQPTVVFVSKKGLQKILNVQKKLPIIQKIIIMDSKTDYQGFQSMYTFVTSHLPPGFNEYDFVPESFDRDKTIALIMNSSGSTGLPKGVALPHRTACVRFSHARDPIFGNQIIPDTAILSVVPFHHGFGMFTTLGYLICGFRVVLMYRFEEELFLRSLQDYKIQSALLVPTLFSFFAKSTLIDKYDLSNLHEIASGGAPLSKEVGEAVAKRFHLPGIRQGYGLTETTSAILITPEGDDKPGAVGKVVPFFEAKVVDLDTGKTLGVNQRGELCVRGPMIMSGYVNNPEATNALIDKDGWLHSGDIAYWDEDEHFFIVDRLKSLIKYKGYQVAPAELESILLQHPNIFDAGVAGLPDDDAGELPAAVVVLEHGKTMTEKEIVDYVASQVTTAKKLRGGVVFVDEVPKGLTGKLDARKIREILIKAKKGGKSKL
FAD-linked sulfhydryl oxidase ALR, sequence (P55789 whole entry): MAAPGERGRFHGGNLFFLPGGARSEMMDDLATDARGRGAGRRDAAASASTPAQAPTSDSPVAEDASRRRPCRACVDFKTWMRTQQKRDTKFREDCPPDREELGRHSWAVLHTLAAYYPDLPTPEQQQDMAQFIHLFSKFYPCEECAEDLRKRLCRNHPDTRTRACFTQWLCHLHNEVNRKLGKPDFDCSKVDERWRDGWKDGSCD

Compound: Cn1cc(S(=O)(=O)N2CCOCC2)cc1C(=O)NCCc1ccccc1
- EC50 [1]: > 112 µM (not active)
- EC50 [2]: > 112 µM (not active)

Compound: Cc1cc(C)c(C)c(S(=O)(=O)N2CCN(C(=O)c3cc(O)nc4ccccc34)CC2)c1C
- IC50 [3]: > 79 µM (inactive)

Compound: CS(=O)(=O)N1CCC(Oc2ccccc2C(=O)N2CCN(CC3CC3)CC2)CC1
- EC50 [1]: > 112 µM (not active)
- EC50 [2]: > 112 µM (not active)

Compound: COc1ccccc1C(=O)Nc1ccc2c(c1)CCCN2C(=O)c1ccccc1
- EC50 [1]: 0.712 µM (active)
- EC50 [2]: 19.1 µM (active)

- IC50 [4]: > 100 µM (inactive)
Compound: Fc1cc(Br)ccc1COc1ccc(-c2nnco2)cc1

Compound: COc1ccc(OC)c(Nc2nc(C3CC3)nc3c2nnn3Cc2ccccc2)c1
- EC50 [1]: > 112 µM (not active)
- EC50 [2]: > 112 µM (not active)

Compound: CCc1ccc(N2CC(C(=O)OCC(=O)c3c(N)n(CC(C)C)c(=O)n(C)c3=O)CC2=O)cc1 (stereo not given)
- EC50 [1]: > 112 µM (not active)
- EC50 [2]: > 112 µM (not active)

Compound: CCCCn1nc(C(=O)Oc2ccc3c(C)cc(=O)oc3c2)c2ccccc2c1=O
- IC50 [3]: > 79 µM (inactive)

Compound: O=C(Cn1[nH]c(=O)c2ccccc2c1=O)OCC(=O)N1CCc2ccccc2C1
- IC50 [3]: 28.5 µM (active)

- AC50 [5]: 0.41 µM (active)
- IC50 [6]: > 47.1 µM (inactive)
- EC50 [7]: > 53 µM (inactive)
Compound: O=C(c1ccco1)N1CCN=C1SCc1ccccc1Cl

Compound: Cn1c(=O)c2c(nc(Br)n2Cc2ccc3ccccc3c2)n(C)c1=O
- IC50 [3]: 13.7 µM (active)

- AC50 [5]: 0.171 µM (active)
Compound: CN(C)CCCSc1nc2ccccc2s1

- IC50 [4]: > 100 µM (inactive)
Compound: CCOc1nc(-c2ccncc2)nc2ccccc12

Compound: COc1ccc(C2C(C(=O)Nc3cc(OC)c(OC)c(OC)c3)c3ccccc3C(=O)N2C)cc1 (stereo not given)
- EC50 [8]: 2.43 µM (inconclusive)
- EC50 [9]: 104 µM (inconclusive)
- EC50 [10]: 2.56 µM (inconclusive)
- EC50 [11]: 2.62 µM (active)

Compound: CCC(C)N(C(=O)COC(=O)Cc1nnc(O)c2ccccc12)C1CCS(=O)(=O)C1 (stereo not given)
- IC50 [3]: > 79 µM (inactive)

- IC50 [12]: > 20 µM (inactive)
Compound: CCc1cccc(NC(=O)CSC2=NS(=O)(=O)c3ccccc32)c1

- IC50 [4]: > 100 µM (inactive)
Compound: Brc1ccc(-c2cn3cccnc3n2)cc1

Compound: Cn1c(=O)[nH]c(=O)c2c1nc(N1CCCCCC1)n2CC(N)=O
- EC50 [1]: > 112 µM (not active)
- EC50 [2]: > 112 µM (not active)

- IC50 [4]: 30.1 µM (active)
Compound: Clc1ccc(-c2nnc(-c3cccnc3)o2)cc1
